Literature values, collected in patent EP3409275B1, “COMPOSITION FOR PREVENTION AND/OR TREATMENT OF DISEASES ASSOCIATED TO HYPERALGESIA” (Neilos S.r.l., priority 2017, dated 2018).
Values belong to the compound of their own block, whether it stands above or below them.

Tests used:
GPR55 orphan receptor = GPR55 orphan receptor (Homo sapiens, UniProt Q9Y2T6); conditions: activation of GPR55
[1] = mice, curcumin 40 mg/kg, phenylbutazone at similar doses
[2] = 2 g of curcumin with 20 mg of piperine, healthy volunteers

Sequence of GPR55 orphan receptor (Q9Y2T6 whole entry): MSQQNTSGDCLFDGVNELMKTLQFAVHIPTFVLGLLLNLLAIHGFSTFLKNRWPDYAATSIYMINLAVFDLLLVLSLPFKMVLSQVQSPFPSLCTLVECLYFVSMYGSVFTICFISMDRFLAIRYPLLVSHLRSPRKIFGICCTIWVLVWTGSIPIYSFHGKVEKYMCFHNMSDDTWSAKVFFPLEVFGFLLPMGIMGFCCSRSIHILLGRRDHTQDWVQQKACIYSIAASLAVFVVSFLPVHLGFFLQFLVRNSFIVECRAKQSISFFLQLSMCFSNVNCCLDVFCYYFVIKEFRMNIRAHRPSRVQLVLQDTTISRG

removal half-life (in vivo): about 12 minutes
area under the curve of PEA plasmatic level (AUC1-8h) (oral administration): 6525 ± 1372 ng PEA min ml-1
tmax (oral administration): 15 min
maximum plasmatic concentration (Cmax) (oral administration, Wistar rats): 420 ± 132 nm
EC50 (GPR55 orphan receptor): 4 nM
SMILES: CCCCCCCCCCCCCCCC(=O)NCCO [PEA, N-(2-hydroxyethyl) hexadecanamide]

SMILES: CCCCC1C(=O)N(c2ccccc2)N(c2ccccc2)C1=O [phenylbutazone]
ulcerogenic index [1]: 1.70

increase in oral bioavailability of curcumin [2]: 20 times
SMILES: O=C(/C=C/C=C/c1ccc2c(c1)OCO2)N1CCCCC1 [piperine]
